Test results published in article PMC5418711, “Safety and efficacy of the choline analogue SAR97276 for malaria treatment: results of two phase 2, open-label, multicenter trials in African patients” (Malaria Journal, 2017).
Values joined by “and” are separate entries in the source; they are usually repeats but may differ in a detail not shown here. Equal entries are not always repeated.

How the values were obtained:
P. falciparum = assay: Study 2: phase 2 randomized controlled trial, efficacy in teenagers with uncomplicated falciparum malaria; format: in vivo, Plasmodium falciparum; conditions: for Median PRR (parasite reduction ratio: parasitemia at baseline/parasitemia at 72 h): N=8, at 72 h
From the text: The study was designed to enroll up to 180 participants. A randomized, controlled, age de-escalating trial design was applied in Study 2 to assess SAR97276A as a 3-day regimen administered IM to underage malaria patients. […] The study was planned to be conducted first in teenagers (age 12–17 years) and then in children (age 2–11 years).
Study 2 only enrolled uncomplicated malaria patients with P. falciparum ≥2000 parasites/µL. Two age groups were planned: Teenager aged 12–17 years and children aged 2–11 years. SAR97276A was planned to be administered only by IM injection.
Study duration and follow-up In both studies, study duration was 28 days for each patient including a screening period of up to 12 h before inclusion into the study. Participants were hospitalized for at least 3 days (72 h) after the start of treatment. Follow-up visits were done on day 6, 8, 14 ± 2, 21 ± 2, 28 ± 2 (Study 1); and day 7, 14 ± 2, 21 ± 2, 28 ± 2 (Study 2). Patient examination Fever measurements and thick blood smears were done every 6 h until 72 h and at each follow-up visit. Parasitemia was determined microscopically by Giemsa stained thick blood smear by two trained microscopists blinded to each other. […] Laboratory tests including hematology, biochemistry and urine analysis were done at baseline, day 2, 4, 28 (Study 1), or baseline, day 2, 4, 14, 28 (Study 2); vital signs were recorded at baseline, every 6 h until 72 h and on each follow up visit. An electrocardiogram (ECG) was done at baseline, day 4, 28 (Study 1), or baseline, 48 h, 72 h, day 28 (Study 2). For Study 2 respiratory parameters (respiratory rate, peak flow, efficiency of cough) were also checked at baseline and 30 min after first dose on day 1, 2 and 3.
Primary endpoint consisted of two criteria: (1) parasite clearance at 72 h analyzed by thick blood smear and (2) measurement of parasite reduction ratio (PRR: parasitemia at baseline/parasitemia at 72 h).
Sample size was calculated based on the parasite reduction ratio (PRR). Details are described in the supplementary information (see Additional file 4). PRR was calculated by: parasitemia at baseline/parasitemia at 72 h. For patients who prematurely discontinued study treatment the parasitemia at 72 h was replaced by last measurement of parasitemia or last measurement before rescue therapy for calculation of PRR at 72 h.
Parasite clearance time (PCT), PC50 and PC90 were calculated by Kaplan–Meier method. Interim analysis was to be performed following completion of each cohort.
Study 2: The patients were monitored up to day 28. […] The current available recommended rescue therapy as recommended by local guidelines was given. Treatment failures were described as early and late treatment failures.
Late treatment failure was defined as development of severe malaria after day 3 after first study drug administration in presence of parasitemia, and /or parasitemia on day 4 - 14 with axillary temperature ≥ 37.5°C, and /or any additional antimalarial therapy not specified in the study protocol.

[1] = Study 2: safety assessment (TEAEs, ECG, respiratory parameters); format: in vivo, human; conditions: for QTc interval - change from baseline Borderline: Incr. from B 30-60 ms / QTc interval - change from baseline Prolonged: Incr. from B > 60 ms / QTc interval Borderline: 431-450 ms (Boys); 451-470 ms (Girls) / QTc interval Prolonged: > 450 ms (Boys); > 470 ms (Girls) / QTc interval ≥ 500 ms: TEAE period
Method: Study duration and follow-up In both studies, study duration was 28 days for each patient including a screening period of up to 12 h before inclusion into the study. Participants were hospitalized for at least 3 days (72 h) after the start of treatment. Follow-up visits were done on day 6, 8, 14 ± 2, 21 ± 2, 28 ± 2 (Study 1); and day 7, 14 ± 2, 21 ± 2, 28 ± 2 (Study 2). Patient examination Fever measurements and thick blood smears were done every 6 h until 72 h and at each follow-up visit. Parasitemia was determined microscopically by Giemsa stained thick blood smear by two trained microscopists blinded to each other. Safety assessment Safety analysis was based on AEs including vision assessment recorded from baseline until day 28 (in binocular conditions, for near and distant visual acuity, using standard optotypes appropriate for patient’s age and reading ability. Tests with standard corrective glasses (+3 and −3 diopters) were performed in case of visual adverse events, to assess whether vision improved or worsened with corrective glasses). Laboratory tests including hematology, biochemistry and urine analysis were done at baseline, day 2, 4, 28 (Study 1), or baseline, day 2, 4, 14, 28 (Study 2); vital signs were recorded at baseline, every 6 h until 72 h and on each follow up visit. An electrocardiogram (ECG) was done at baseline, day 4, 28 (Study 1), or baseline, 48 h, 72 h, day 28 (Study 2). For Study 2 respiratory parameters (respiratory rate, peak flow, efficiency of cough) were also checked at baseline and 30 min after first dose on day 1, 2 and 3.
Treatment emergent adverse events (TEAEs) were defined as AEs that developed or worsened during the treatment period until day 6 following the end of study treatment.

[2] = test system: P. falciparum laboratory and clinical isolates; set-up: method as in PMID 11847346, PMID 15492221; conditions: cited from earlier work
[3] = Group 2A: 3 days IM once daily 0.5 mg/kg, N=8
[4] = Group 2B: 3 days IM twice daily 0.25 mg/kg, N=8
[5] = Group 2A: 3 days IM once daily 0.5 mg/kg, teenagers, N=8
[6] = Group 2A: 3 days IM once daily 0.5 mg/kg, teenagers, N=8, baseline 205
[7] = Group 2A: 3 days IM once daily 0.5 mg/kg, teenagers
[8] = Group 2B: 3 days IM twice daily 0.25 mg/kg, teenagers, N=8
[9] = Group 2B: 3 days IM twice daily 0.25 mg/kg, teenagers, N=8, baseline 185
[10] = Group 2B: 3 days IM twice daily 0.25 mg/kg, teenagers

Structure (SMILES): Cc1c(CCO)sc[n+]1CCCCCCCCCCCC[n+]1csc(CCO)c1C [SAR97276A]
- Early treatment failures (P. falciparum; [3]): 4
- Late treatment failures (P. falciparum; [3]): 3
- Patients classified as treatment failures (P. falciparum; [3]): 7/8
- Patients who received rescue treatment during the trial (P. falciparum; [3]): 8/8
- Median PRR (parasite reduction ratio: parasitemia at baseline/parasitemia at 72 h) (P. falciparum; Group 2A: 3 days IM once daily 0.5 mg/kg): 22.5 (0.4–6280.0)
- Parasitemia between 6 and 12 h after the start of treatment (P. falciparum; Group 2A: 3 days IM once daily 0.5 mg/kg, not seen in the other groups): Increase of parasitemia
- Early treatment failures (P. falciparum; [4]): 4
- Late treatment failures (P. falciparum; [4]): 1
- Patients classified as treatment failures (P. falciparum; [4]): 5/8
- Patients who received rescue treatment during the trial (P. falciparum; Group 2B: 3 days IM twice daily 0.25 mg/kg, N=8, 0.25 mg/kg): 5 out of 8 and 5/8
- Median PRR (parasite reduction ratio: parasitemia at baseline/parasitemia at 72 h) (P. falciparum; Group 2B: 3 days IM twice daily 0.25 mg/kg): 12.0 (0.3–83.1)
- Patients with TEAE leading to treatment discontinuation [1, 5]: 2 (25%)
- Patients with any TEAE [1, 5]: 8 (100%)
- Patients with any serious AE [1, 5]: 4 (50%)
- TEAE: Decreased appetite [1, 5]: 0
- TEAE: Gastrointestinal disorders [1, 5]: 4 (50%)
- TEAE: Headache [1, 5]: 0
- TEAE: Hepatitis B [1, 5]: 1 (13%)
- TEAE: Jaundice [1, 5]: 1 (13%)
- TEAE: Lacrimation increased [1, 5]: 1 (13%)
- TEAE: Malaria [1, 5]: 7 (88%)
- TEAE: Neutropenia [1, 5]: 0
- TEAE: Pyrexia [1, 5]: 0
- TEAE: Vertigo [1, 5]: 1 (12.5%)
- TEAE: Vision blurred [1, 5]: 1 (13%)
- Peakflow, change from baseline on D1 0.30 h [1, 6]: -15.0 median L/min
- Peakflow, change from baseline on D2 24.30 h [1, 6]: 4.0 median L/min
- Peakflow, change from baseline on D23 48.30 h [1, 6]: 45.0 median L/min
- QTc interval - change from baseline Borderline: Incr. from B 30-60 ms [1, 7]: 2/8
- QTc interval - change from baseline Prolonged: Incr. from B > 60 ms [1, 7]: 0/8
- QTc interval Borderline: 431-450 ms (Boys); 451-470 ms (Girls) [1, 7]: 3/8
- QTc interval Prolonged: > 450 ms (Boys); > 470 ms (Girls) [1, 7]: 0/8
- QTc interval ≥ 500 ms [1, 7]: 0/8
- Patients with TEAE leading to treatment discontinuation [1, 8]: 2 (25%)
- Patients with any TEAE [1, 8]: 5 (63%)
- Patients with any serious AE [1, 8]: 2 (25%)
- TEAE: Decreased appetite [1, 8]: 1 (13%)
- TEAE: Gastrointestinal disorders [1, 8]: 1 (13%)
- TEAE: Headache [1, 8]: 0
- TEAE: Jaundice [1, 8]: 0
- TEAE: Lacrimation increased [1, 8]: 0
- TEAE: Malaria [1, 8]: 4 (50%)
- TEAE: Neutropenia [1, 8]: 2 (25%)
- TEAE: Pyrexia [1, 8]: 0
- TEAE: Vertigo [1, 8]: 0
- TEAE: Vision blurred [1, 8]: 0
- Peakflow, change from baseline on D1 0.30 h [1, 9]: 2.5 median L/min
- Peakflow, change from baseline on D2 24.30 h [1, 9]: 5.0 median L/min
- Peakflow, change from baseline on D23 48.30 h [1, 9]: -10.0 median L/min
- QTc interval - change from baseline Borderline: Incr. from B 30-60 ms [1, 10]: 0/8
- QTc interval - change from baseline Prolonged: Incr. from B > 60 ms [1, 10]: 0/8
- QTc interval Borderline: 431-450 ms (Boys); 451-470 ms (Girls) [1, 10]: 2/8
- QTc interval Prolonged: > 450 ms (Boys); > 470 ms (Girls) [1, 10]: 2/8
- QTc interval ≥ 500 ms [1, 10]: 0/8
- Overall safety profile ([1]; Study 2): good
- Patients with a TEAE who discontinued study treatment and received rescue treatment, total ([1]; Study 2): Four
- Respiratory parameters: untoward effect ([1]; Study 2): no indication for an untoward effect
- SAEs: relation to study treatment ([1]; Study 2): not related
- Patients who had a SAE, total ([1]; Study 2, all in the SAR97276A treatment groups): 6
- Neutrophil count in the two patients with neutropenia who discontinued treatment ([1]; Study 2, day 2, returned to normal values at 72 h after treatment start): 0.99 giga/L and 0.91 giga/L
- Patients with a SAE with persistence of uncomplicated malaria ([1]; Study 2, of six SAE patients): five
- In vitro-activity against P. falciparum laboratory and clinical isolates [2]: powerful in vitro-activity
